Measurements reported in patent publication US10801077B2, “Influenza A virus variants” (Vertex Pharmaceuticals Incorporated, priority 2014, dated 2020).

Key:
[1] = tested on: A/California/07/2009 (A/H1N1) influenza virus isolates; type: cell-based
[2] = tested on: A/Puerto Rico/8/34 (A/H1N1) influenza virus isolates; type: cell-based

## CC(C)(C)[C@@H](CC(=O)O)Nc1nc(-c2c[nH]c3ncc(F)cc23)ncc1F [Compound 1]
[1]
  EC50 shift: 500 fold
[2]
  EC50 shift: 286 fold
